From patent publication US12440581B2, “Fluorophores for super-resolution imaging” (HOWARD HUGHES MEDICAL INSTITUTE, priority 2019, dated 2025)

Legend:
histone H2B-SNAP-tag = test: Comparison of SNAP ligands 7STL and 10STL in live cells (no-wash); format: cell-based; conditions: 1 μM, 1 h
Description: Comparison of SNAP ligands 7STL and 10STL in live cells.

microtubules = conditions: live-cell no-wash imaging
Experimental: Imaging was performed on a LSM880 confocal microscope (Zeiss) using the following configuration: excitation: 514 nm/emission: 526-615 nm (JF526); excitation: 594 nm/emission: 599-734 nm (JF585); excitation: 633 nm/emission: 638-759 nm (JF646 or SiR).

HaloTag protein = HaloTag protein (Rhodococcus rhodochrous, UniProt P0A3G2, A155T/A167V/A172T/A224E/C128F/C176G/D78G/E160K/E257K/H272N/K175M/K195N/L47V/L88M/N227D/P291S/S2A/S58T/T264A/Y273L/Y87F); test: Increase in absorption of HaloTag ligands following attachment to HaloTag protein; format: biochemical; conditions: 5 μM ligand, 1.5 equiv HaloTag protein
Experimental: Measurement of increase in absorption of HaloTag ligands 1HTL-10HTL following attachment to HaloTag protein. HaloTag protein was prepared as a 100 μM solution in 75 mM NaCl, 50 mM TRIS·HCl, pH 7.4. Absorption measurements were performed in 1.0-mL quartz cuvettes. HaloTag ligands (5 μM) were dissolved in 10 mM HEPES, pH 7.3 containing 0.1 mg/mL CHAPS. An aliquot of HaloTag protein (75 μL, 7.5 μM, 1.5 equiv) or an equivalent volume of buffer (75 mM NaCl, 50 mM TRIS·HCl, pH 7.4) was added and the resulting mixture was incubated until a consistent absorption signal was observed (˜60 min). Absorption scans are averages (n=2).

histone H2B-HaloTag = test: Comparison of HaloTag ligands 7HTL and 10HTL in live cells (no-wash); format: cell-based; conditions: 500 nM, 30 min
Description: Comparison of HaloTag ligands 7HTL and 10HTL in live cells.

[1] = Quantum yield determination; format: physicochemical; conditions: absolute, integrating sphere
Experimental: Quantum yield determination. All reported absolute fluorescence quantum yield values (Φ) were measured in the laboratory under identical conditions using a Quantaurus-QY spectrometer (model C11374, Hamamatsu). This instrument uses an integrating sphere to determine photons absorbed and emitted by a sample. Measurements were carried out using dilute samples (A<0.1) and self-absorption corrections were performed using the instrument software^57 when appropriate. Reported values are averages (n=3).

[2] = Determination KL-Z and εmax; format: physicochemical
Experimental: Determination KL-Z and εmax. The lactone-zwitterion equilibrium constant (KL-Z) was calculated as described previously^18,41 using equation 1: KL-Z=(εdw/εmax)/(1−εdw/εmax) (1) • where εdw is the extinction coefficient of the dyes in a 1:1 (v/v) dioxane:water solvent mixture containing 0.01% (v/v) triethylamine; the dioxane-water mixture was chosen to give a large range of KL-Z values and the triethylamine additive ensures the rhodamines are in the net neutral form. The emax (maximal extinction coefficient) values were measured in 0.1% (v/v) trifluoroacetic acid (TFA) in 2,2,2-trifluoroethanol (TFE) for rhodaminc 10, and 0.1% (v/v) TFA in ethanol for the Si-rhodamine 8.
Instead, a solution of strong acid in alcoholic solvents was used (e.g., TFA in […]) to shift the equilibrium to the open form by protonation of the o-carboxyl group. This decades-old procedure^36 allows estimation of the maximal extinction coefficient (εmax) and determination of KL-Z=(ε/εmax)/(1−ε/εmax).
The KL-Z was determined using ε values measured in 1:1 dioxane:water to ensure a broad distribution of values.^18 An inverse relationship was observed between KL-Z and fluorogenicity, showing that KL-Z is sufficient to accurately predict the increase in fluorescence of rhodamine dyes. This increase in fluorescence is primarily driven by the increase in absorption; chromogenicity is correlated both with KL-Z and fluorogenicity (FIGS. 11E-11J). Importantly, this trend holds across different rhodamine scaffolds including Si-rhodamines (1-3), carborhodamines (4-5), and classic, oxygen-containing rhodamines (6-7, FIG. 1C). Based on this inverse relationship a simple rubric was determined: a dye with KL-Z<10^−2 should yield a HaloTag ligand with at least 10-fold fluorogenicity (FIG. 1E).

[3] = UV-vis and fluorescence spectroscopy; format: physicochemical; conditions: 10 mM HEPES, pH 7.3
Experimental: UV-vis and fluorescence spectroscopy. […] Spectroscopy was performed using 1-cm path length, 3.5-mL quartz cuvettes or 1-cm path length, 1.0-ml quartz microcuvettes (Starna Cells). All measurements were taken at ambient temperature (22±2° C.). Absorption spectra were recorded on a Cary Model 100 spectrometer (Agilent). Fluorescence spectra were recorded on a Cary Eclipse fluorometer (Varian). Maximum absorption wavelength (λabs), extinction coefficient (εw), and maximum emission wavelength (λem) were taken in 10 mM HEPES, pH 7.3 buffer unless otherwise noted; reported values for ew are averages (n=3). Normalized spectra are shown for clarity.

Chain of HaloTag protein (P0A3G2 other isoform, or with tags, fused parts or gaps with the stated changes): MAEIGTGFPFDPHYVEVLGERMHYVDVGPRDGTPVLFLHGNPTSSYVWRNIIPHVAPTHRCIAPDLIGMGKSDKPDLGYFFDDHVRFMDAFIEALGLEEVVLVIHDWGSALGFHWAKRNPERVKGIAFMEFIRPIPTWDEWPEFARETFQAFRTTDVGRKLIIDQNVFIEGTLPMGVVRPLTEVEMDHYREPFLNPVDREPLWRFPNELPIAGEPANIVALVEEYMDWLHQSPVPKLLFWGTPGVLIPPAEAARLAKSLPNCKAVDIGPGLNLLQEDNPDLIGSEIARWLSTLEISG

For Nc1nc(OCc2ccc(CNC(=O)c3ccc(C(=O)[O-])c(-c4c5cc(F)c(=[N+]6CC(F)(F)C6)cc-5oc5cc(N6CC(F)(F)C6)c(F)cc45)c3)cc2)c2nc[nH]c2n1 [10STL, JF526-SNAP-tag ligand], the “signal-to-background compared to JF525” value (histone H2B-SNAP-tag) was “superior signal-to-background”.

For JF526-Taxol [10TXL], the “performance relative to SiR-tubulin (1TXL)” value (microtubules) was “comparable performance”.

For O=C(NCCOCCOCCCCCCCl)c1ccc(C(=O)[O-])c(-c2c3cc(F)c(=[N+]4CC(F)(F)C4)cc-3oc3cc(N4CC(F)(F)C4)c(F)cc23)c1 [10HTL, JF526-HaloTag ligand], the “increase of absorbance upon conjugation to purified HaloTag protein” value (HaloTag protein) was “substantial increase”.

In the case of O=C([O-])c1ccccc1-c1c2cc(F)c(=[N+]3CC(F)(F)C3)cc-2oc2cc(N3CC(F)(F)C3)c(F)cc12 [dye 10, Janelia Fluor 526], the “signal-to-background compared to JF525” value (histone H2B-HaloTag) is reported as “superior signal-to-background”, the “ϕ (fluorescence quantum yield)” value [1] is reported as 0.87 and the εmax ([2]; 0.1% TFA in TFE (rhodamine 10), 0.1% TFA in ethanol (Si-rhodamine 8)) is reported as 118,000 M^−1cm^−1. For the same compound, the “KL-Z (lactone-zwitterion equilibrium constant)” value ([2]; 1:1 (v/v) dioxane:water, 0.01% triethylamine) was 0.0050, the εw [3] was 19,000 M^−1cm^−1 and the λabs [3] was 526 nm. The λem [3] was 550 nm.
